From ChEMBL document CHEMBL1201862, “PubChem BioAssay data set” (2004)
Calls of active or inactive are those of the source.

Columns and labels:
[1] = target: Photoreceptor-specific nuclear receptor (Homo sapiens, UniProt Q9Y5X4); format: functional, cell-based;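 note: CHO-S cells with Gal4-NCOR and VP16-NR2E3 two-hybrid luciferase reporter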
[2] = blockers of CRF-binding protein–CRF-R2 complex – cell-based, uHTS hits, 384-well, dose response (AID 651639); format: functional, Homo sapiens; conditions: read-out: IC50_Mean
[3] = target: T1, Corticotropin-releasing factor receptor 2/Corticotropin-releasing factor-binding protein (Homo sapiens, UniProt P24387+Q13324); assay: Dose Response confirmation of uHTS hits for small molecule antagonists of the CRF-binding protein and CRF-R2 receptor complex.; format: functional; conditions: read-out: IC50_Mean
T1 sequence (Q13324 whole entry): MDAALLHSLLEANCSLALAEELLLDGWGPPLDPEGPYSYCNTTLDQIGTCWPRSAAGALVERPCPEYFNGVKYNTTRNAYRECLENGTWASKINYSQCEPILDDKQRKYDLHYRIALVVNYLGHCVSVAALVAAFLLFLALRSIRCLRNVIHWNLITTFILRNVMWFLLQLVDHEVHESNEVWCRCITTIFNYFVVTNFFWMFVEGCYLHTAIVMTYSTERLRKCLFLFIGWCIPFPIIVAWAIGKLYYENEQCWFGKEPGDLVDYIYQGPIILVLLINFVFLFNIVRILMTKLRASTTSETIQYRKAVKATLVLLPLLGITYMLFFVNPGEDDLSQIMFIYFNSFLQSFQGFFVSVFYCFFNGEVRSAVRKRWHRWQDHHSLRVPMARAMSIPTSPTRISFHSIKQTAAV
T1 sequence (P24387 whole entry): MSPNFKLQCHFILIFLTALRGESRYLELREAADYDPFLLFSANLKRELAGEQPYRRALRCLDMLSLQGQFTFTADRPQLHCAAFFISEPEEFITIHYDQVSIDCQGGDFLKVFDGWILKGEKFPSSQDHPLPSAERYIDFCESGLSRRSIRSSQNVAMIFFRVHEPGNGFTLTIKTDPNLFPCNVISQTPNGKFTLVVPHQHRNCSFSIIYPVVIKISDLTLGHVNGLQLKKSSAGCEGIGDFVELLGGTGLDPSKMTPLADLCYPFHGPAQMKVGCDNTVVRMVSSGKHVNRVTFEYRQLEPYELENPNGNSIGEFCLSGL

[4] = target: T1, Corticotropin-releasing factor receptor 2/Corticotropin-releasing factor-binding protein; assay: activators of CRF receptor 2 with binding protein – uHTS hits, confirmation (AID 602473); format: functional; conditions: read-out: EC50_Mean
[5] = nonselective StAR promoter luciferase inhibitors – cell-based, luminescence, luciferase reporter, counter-screen for LRH-1 inverse agonist project, dose response (AID 651969); format: functional
Steroidogenic factor 1 = Steroidogenic factor 1 (Homo sapiens, UniProt Q13285); assay: Counterscreen for inverse agonists of the liver receptor homolog-1 (LRH-1; NR5A2): Luminescence-based cell-based high throughput dose response assay to identify inverse agonists of the Steroidogenic Factor 1 Nuclear Receptor (SF1; NR5A1).; format: functional
[6] = target: Nuclear receptor subfamily 5 group A member 2 (Homo sapiens, UniProt O00482); format: functional, cell-based;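 note: HEK293T cells transfected with LRH-1 and a StAR promoter luciferase reporter; potency for inhibitors that lower LRH-1 driven reporter light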
cells [7] = format: functional, cell-based
cells [8] = format: functional, cell-based; remark: listed apart in the source

Sequence of Steroidogenic factor 1 (Q13285 whole entry): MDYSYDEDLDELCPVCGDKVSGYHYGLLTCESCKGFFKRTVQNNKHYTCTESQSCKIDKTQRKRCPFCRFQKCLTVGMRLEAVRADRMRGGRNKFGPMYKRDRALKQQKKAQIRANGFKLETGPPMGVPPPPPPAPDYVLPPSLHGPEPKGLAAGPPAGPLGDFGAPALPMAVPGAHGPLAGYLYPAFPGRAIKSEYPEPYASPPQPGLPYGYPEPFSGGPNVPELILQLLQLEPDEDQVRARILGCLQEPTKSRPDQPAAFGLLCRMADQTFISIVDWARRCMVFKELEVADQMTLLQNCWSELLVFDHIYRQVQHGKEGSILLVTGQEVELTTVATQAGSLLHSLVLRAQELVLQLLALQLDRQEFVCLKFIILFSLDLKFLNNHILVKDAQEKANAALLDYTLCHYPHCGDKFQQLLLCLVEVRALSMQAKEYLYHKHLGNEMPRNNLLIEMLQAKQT
Sequence of Nuclear receptor subfamily 5 group A member 2 (O00482 whole entry): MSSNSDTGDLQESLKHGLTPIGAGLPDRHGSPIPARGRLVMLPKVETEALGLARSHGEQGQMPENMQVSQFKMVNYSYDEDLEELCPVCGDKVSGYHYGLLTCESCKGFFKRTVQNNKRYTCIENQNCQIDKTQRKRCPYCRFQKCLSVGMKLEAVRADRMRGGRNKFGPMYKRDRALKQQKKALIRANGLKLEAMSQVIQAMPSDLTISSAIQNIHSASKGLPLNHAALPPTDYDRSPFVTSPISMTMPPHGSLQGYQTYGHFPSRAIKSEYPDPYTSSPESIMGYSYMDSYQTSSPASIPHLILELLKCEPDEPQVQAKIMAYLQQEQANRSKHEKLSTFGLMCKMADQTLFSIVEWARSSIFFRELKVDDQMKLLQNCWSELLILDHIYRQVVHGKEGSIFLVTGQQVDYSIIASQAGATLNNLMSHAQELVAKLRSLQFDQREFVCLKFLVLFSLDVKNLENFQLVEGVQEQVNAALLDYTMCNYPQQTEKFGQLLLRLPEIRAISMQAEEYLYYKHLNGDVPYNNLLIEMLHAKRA
Sequence of Photoreceptor-specific nuclear receptor (Q9Y5X4 whole entry, the tested form may be a part): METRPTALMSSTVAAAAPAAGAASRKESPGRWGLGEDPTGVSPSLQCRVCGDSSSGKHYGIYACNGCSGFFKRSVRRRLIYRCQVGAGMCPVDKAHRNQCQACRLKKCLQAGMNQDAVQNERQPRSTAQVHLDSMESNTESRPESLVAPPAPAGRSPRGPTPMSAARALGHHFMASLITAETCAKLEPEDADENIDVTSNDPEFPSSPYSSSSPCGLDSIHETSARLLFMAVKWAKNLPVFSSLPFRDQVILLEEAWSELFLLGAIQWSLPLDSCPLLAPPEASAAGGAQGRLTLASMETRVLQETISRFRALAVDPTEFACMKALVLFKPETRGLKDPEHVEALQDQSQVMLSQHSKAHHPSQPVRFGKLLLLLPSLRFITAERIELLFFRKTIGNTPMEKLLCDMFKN

## O=C(Nc1cccc(NC(=O)c2c(F)cccc2F)n1)c1c(F)cccc1F
[1]
  IC50: 2.98 µM (active)

## Cc1cc(C)cc(Nc2c(F)c(F)c(F)c(F)c2C(=O)O)c1
[2]
  IC50: 3.74 µM (active)
[3]
  IC50: 31.2 µM (active)
[4]
  EC50: > 53 µM (inactive)

## COc1ccc(NC(=O)CSc2sc3c(O)cc(O)nc3c2C#N)c(OC)c1
[5]
  IC50: 35.9 µM (inactive)

## Cc1ccc(S(=O)(=O)N2c3ccccc3OCC2c2ccccc2)cc1 (stereo not drawn)
[2]
  IC50: > 20 µM (inactive)
[3]
  IC50: < 0.368 µM (active)
[4]
  EC50: > 53 µM (inactive)

## O=C(COC(=O)c1ccc(Br)cc1)Nc1ccccc1Br
[5]
  IC50: 35.9 µM (inactive)
Steroidogenic factor 1
  IC50: 35.9 µM (inactive)
[6]
  IC50: 35.9 µM (inactive)

## O=C(N[C@H](C(=O)N1CCC[C@H]1C(=O)NCCc1ccccc1Cl)C1CCCCC1)c1cccs1
Cells [7]
  EC50: > 29.9 µM (inactive)
Cells [8]
  IC50: > 29.9 µM (inactive)
